According to patent publication US5962447A, “Benzoxazines for enhancing synaptic response” (The Regents of the University of California, priority 1998, dated 1999):

Experiments:
AMPA receptors = assay: In vitro physiological testing: field EPSPs in rat hippocampal slices (CA1); assay type: cell-based, rat (Sprague-Dawley); details: for +25% Amplitude (estimated concentration required to increase the amplitude of the EPSP to 25% above baseline) / +50% Half-Width (estimated concentration required to increase the width of the EPSP at half-height by 50%): rat hippocampal slice, 35° C., about 15 min perfusion, estimated by interpolation in most cases, extrapolation for others; for in vitro enhancement by rotational restriction vs. corresponding rotomer: figure: +50% half-width, vs. substituted benzoyl piperidine rotomers
Protocol: In Vitro Physiological Testing
The physiological effects of the compounds of this invention were determined in vitro with slices of rat hippocampus by measuring excitatory responses (field EPSPs) in hippocampal slices maintained in a recording chamber continuously perfused with artificial cerebrospinal fluid (ACSF). During a 15-30 minute interval, the perfusion medium was switched to one containing various concentrations of the test compounds. Responses collected immediately before and at the end of drug perfusion were superimposed in order to calculate both the percent increase in EPSP amplitude and percent increase in the width of the response at one-half the peak height (half-width).
To conduct these tests, the hippocampus was removed from anesthetized, 2 month old Sprague-Dawley rats, and in vitro slices (400 micrometers thick) were prepared and maintained in an interface chamber at 35° C. using conventional techniques. this is the procedure used by Dunwiddie and Lynch, J. Physiol. […] A bipolar nichrome stimulating electrode was positioned in the dendritic layer (stratum radiatum) of the hippocampal subfield CA1 close to the border of subfield CA3.
Current pulses (0.1 msec) through the stimulating electrode activated a population of the Schaffer-commissural (SC) fibers which arise from neurons in the subdivision CA3 and terminate in synapses on the dendrites of CA1 neurons. Activation of these synapses causes them to release the transmitter glutamate. Glutamate binds to the post-synaptic AMPA receptors which then transiently open an associated ion channel and permit a sodium current to enter the postsynaptic cell. This current results in a voltage in the extracellular space (the field excitatory post-synaptic potential or field "EPSP") which is recorded by a high impedance recording electrode positioned in the middle of the stratum radiatum of CA1.
For the experiments summarized in the table below, the intensity of the stimulation current was adjusted to produce half-maximal EPSPs (typically about 1.5-2.0 mV). Paired stimulation pulses were given every 40 seconds with an interpulse interval of 200 msec. The field EPSPs of the second response were digitized and analyzed to determine amplitude, half-width, and response area. If the responses were stable for 15-30 minutes (baseline), test compounds were added to the perfusion lines for a period of about 15 minutes. The perfusion was then changed back to regular ACSF.
Paired-pulse stimulation was used since stimulation of the SC fibers in part activates interneurons which generate an inhibitory postsynaptic potential (IPSP) in the pyramidal cells of CA1. This feed-forward IPSP typically sets in after the EPSP reaches its peak. The feed-forward IPSP accelerates the repolarization and shortens the decay phase of the EPSP, and thus could partially mask the effects of the test compounds. One of the relevant features of the feed-forward IPSP is that it cannot be reactivated for several hundred milliseconds following a stimulation pulse. This phenomenon can be employed to advantage to eliminate IPSP by delivering paired pulses separated by 200 milliseconds and using the second ("primed") response for data analysis.
The compounds of the invention were assayed in the physiological test system described above for the generation of data presented in the table below. […] Values have been estimated by interpolation in most cases, but by extrapolation from determined values for others.

AMPA receptor = assay: In vitro hippocampal patch preparation, effect on AMPA receptor function; assay type: cell-based; details: Chiralpak AD, hexane/50% isopropanol
Protocol: This isomer was determined to be the (+)-enantiomer.

[1] = metabolite of aniracetam; cited from earlier work
[2] = Enhancing memory in rats, 8-arm radial maze learning paradigm; assay type: in vivo, rat; details: for minimal effective dose: Rattus norvegicus, rats, read-out: Behavioral Dose (threshold dose for enhancing memory); for in vivo enhancement by rotational restriction vs. corresponding rotomer: figure: threshold dose

Structure (SMILES)	+25% Amplitude (estimated concentration required to increase the amplitude of the EPSP to 25% above baseline) (AMPA receptors) [mM]	+50% Half-Width (estimated concentration required to increase the width of the EPSP at half-height by 50%) (AMPA receptors) [mM]	also measured
COc1ccc2c(c1)OC1CCCN1C2=O (racemic) [Compound IV, (R,S)-6-Methoxy-2,3-dihydro-1H-pyrrolo[2,1-b][1,3]benzoxazine-9(3aH)-one]	> 1	0.4	–
COc1ccc2c(c1)C(=O)N1CCCC1O2 (racemic) [Compound V, (R,S)-7-Methoxy-2,3-dihydro-1H-pyrrolo[2,1-b][1,3]benzoxazine-9(3aH)-one]	1	0.25	–
O=C1c2cc3c(cc2OC2CCCCN12)OCO3 (racemic) [Compound II, (R,S)-1,3-Dioxolo[4,5-g]-1,2,3,4-tetrahydropyrido[2,1-b][1,3]benzoxazine-11(4aH)-one]	0.3	0.2	–
O=C1c2cc3c(cc2OC2CCCN12)OCCO3 (single isomer, unassigned) [second eluting enantiomer]	–	–	activity of second eluting enantiomer relative to first eluting enantiomer (effect on AMPA receptor function) (AMPA receptor): at least 10 -fold
COc1ccc(C(=O)NCCCC(=O)O)cc1 [anisoyl-GABA]	–	–	aniracetam-like effects [1]: no aniracetam-like effects
O=C1c2cc3c(cc2OC2CCCN12)OCO3 (racemic) [Compound I, (R,S)-1,3-Dioxolo[4,5-g]-2,3-dihydro-1H-pyrrolo[2,1-b][1,3]benzoxazine-10(3aH)-one]	0.1	0.05	in vitro enhancement by rotational restriction vs. corresponding rotomer (AMPA receptors): marked enhancement; minimal effective dose [2]: 1 mg/kg; in vivo enhancement by rotational restriction vs. corresponding rotomer [2]: marked enhancement
O=C1c2cc3c(cc2OC2CCCN12)OCO3 (single isomer, unassigned) [first eluting enantiomer]	–	–	activity of first eluting enantiomer relative to second eluting enantiomer (effect on EPSP) (AMPA receptors; Chiralcel OD, hexane/10% isopropanol, in vitro hippocampal slice): at least 10 -fold
O=C1c2cc3nccnc3cc2OC2CCCCN12 (racemic) [Compound VII, (R,S)-Pyrazino[2,3-g]-1,2,3,4-tetrahydropyrido[2,1-b] [1,3] benzoxazine-12(4aH)-one]	0.4	0.3	–
O=C1c2cc3c(cc2OC2CCCN12)OCCO3 (racemic) [Compound III, (R,S)-1,4-Dioxan[2,3-g]-2,3-dihydro-1H-pyrrolo[2,1-b][1,3]benzoxazine-11(3aH)-one]	> 0.03	0.02	in vitro enhancement by rotational restriction vs. corresponding rotomer (AMPA receptors): marked enhancement; potency in the behavioral task vs. corresponding rotomer and other ampakines of WO 94/02475 [2]: ten times more potent; minimal effective dose [2]: 0.1 mg/kg; in vivo enhancement by rotational restriction vs. corresponding rotomer [2]: marked enhancement
O=C1c2cc3nccnc3cc2OC2CCCN12 (racemic) [Compound VI, (R,S)-Pyrazino[2,3-g]-2,3-dihydro-1H-pyrrolo[2,1-b][1,3]benzoxazine-11(3aH)-one]	0.1	0.1	in vitro enhancement by rotational restriction vs. corresponding rotomer (AMPA receptors): marked enhancement; minimal effective dose [2]: 2 mg/kg; in vivo enhancement by rotational restriction vs. corresponding rotomer [2]: marked enhancement
COc1ccc2c(c1)C(=O)N1CCCC1(C)O2 (racemic) [Compound VIII, (R,S)-7-Methoxy-3a-methyl-2,3-dihydro-1H-pyrrolo[2,1-b][1,3]benzoxazine-9-one]	> 0.3	0.4	–
